Data from patent US11807650B2, “NMDA receptor modulators and uses thereof” (Novartis AG, priority 2016, dated 2023).

Key:
[1] = molecular target: T1, human GRIN1 (variant NR1-3) and GRIN2D expressed in HEK293 cells (Homo sapiens, UniProt O15399); assay: GluN2D PAM CIQ fluorescence assay (Fluo-8 calcium, FDSS 6000); type: cell-based; conditions: relative to CIQ (100 uM) = 100%, read-out: NR2D Percent CIQ Avg Max Measured Effect
T1 construct: GenScript (GRIN2D synthesis) SC115601; host or cells: HEK293
T1 sequence (O15399 28-1336, other chains not shown): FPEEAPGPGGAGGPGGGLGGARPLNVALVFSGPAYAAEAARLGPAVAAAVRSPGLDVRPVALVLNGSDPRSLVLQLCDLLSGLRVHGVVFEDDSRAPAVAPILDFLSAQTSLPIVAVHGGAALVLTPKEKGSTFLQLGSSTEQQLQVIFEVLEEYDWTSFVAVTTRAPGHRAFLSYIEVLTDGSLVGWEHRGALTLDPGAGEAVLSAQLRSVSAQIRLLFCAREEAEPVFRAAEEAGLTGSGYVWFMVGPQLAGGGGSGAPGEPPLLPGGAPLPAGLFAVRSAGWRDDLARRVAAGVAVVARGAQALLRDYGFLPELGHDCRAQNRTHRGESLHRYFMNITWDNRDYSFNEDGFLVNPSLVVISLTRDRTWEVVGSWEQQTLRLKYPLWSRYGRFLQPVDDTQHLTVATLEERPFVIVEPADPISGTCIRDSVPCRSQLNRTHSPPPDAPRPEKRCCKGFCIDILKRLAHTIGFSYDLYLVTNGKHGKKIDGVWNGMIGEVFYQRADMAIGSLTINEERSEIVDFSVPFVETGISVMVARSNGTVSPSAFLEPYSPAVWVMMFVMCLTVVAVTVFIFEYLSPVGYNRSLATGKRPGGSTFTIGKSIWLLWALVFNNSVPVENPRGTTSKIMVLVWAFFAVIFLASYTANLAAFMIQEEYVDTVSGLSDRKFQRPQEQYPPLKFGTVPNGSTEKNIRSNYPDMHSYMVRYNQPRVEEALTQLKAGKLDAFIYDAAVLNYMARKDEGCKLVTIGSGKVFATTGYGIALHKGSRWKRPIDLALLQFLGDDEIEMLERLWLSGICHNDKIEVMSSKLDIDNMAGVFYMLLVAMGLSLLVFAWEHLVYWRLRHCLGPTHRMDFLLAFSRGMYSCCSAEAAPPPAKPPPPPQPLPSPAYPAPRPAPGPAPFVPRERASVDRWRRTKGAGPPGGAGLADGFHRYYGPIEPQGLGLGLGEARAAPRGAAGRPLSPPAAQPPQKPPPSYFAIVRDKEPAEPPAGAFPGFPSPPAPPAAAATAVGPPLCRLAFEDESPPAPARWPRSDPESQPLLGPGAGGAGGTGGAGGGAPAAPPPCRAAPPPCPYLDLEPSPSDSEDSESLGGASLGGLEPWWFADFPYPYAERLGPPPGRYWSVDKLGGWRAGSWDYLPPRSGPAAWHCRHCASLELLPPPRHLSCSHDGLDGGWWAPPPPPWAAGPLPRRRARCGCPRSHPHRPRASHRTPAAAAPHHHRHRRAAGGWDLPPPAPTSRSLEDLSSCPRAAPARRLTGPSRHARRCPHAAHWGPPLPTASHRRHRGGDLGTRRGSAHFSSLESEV
Method: GluN2D PAM CIO Flourescence AssayHEK293 cells were transfected to express human GRIN1 (variant NR1-3, Origene, SKU #: SC115601, Rockville, Md.) and GRIN2D (NCBI locus NM_000836, sequence optimized and synthesized by GenScript) and grown as an adherent monolayer at 37° C., 5% CO2 in DMEM/Ham's F12+10% FBS (Hyclone SH3007.03T in the presence of 2.5 mM ARL-15896 (AdooQ Bioscience, Irvine Calif.). To prepare the cells for an experiment, they were rinsed with Dulbecco's PBS (Ca^2+ and Mg^2+ free) and detached from the flask with TrypLE™ Express (Life Technologies, Carlsbad, Calif.) using the manufacturer's recommended methods. Cells collected from the flask were washed twice in Ca^2+/Mg^2+-free Hanks Balanced Salt Solution+20 mM HEPES (HBSS), and counted and assessed for viability with trypan blue. Washed cells were then dye-loaded by resuspending in Fluo-8/AM calcium sensitive dye plus Component B (AAT Bioquest, Sunnyvale, Calif.) diluted in HBSS. To allow cells to take up fluo-8 dye, they were incubated in the dark for 15 min at 37° C., followed by 30 min at 22-25° C. After dye-loading, cells were washed and resuspended in HBSS and plated in 384-well plates (Falcon 353962; Corning, Big Flats, N.Y.) at 20,000-30,000 cells/well in a final volume of 25 μl/well. The cell plates were centrifuged at 200×g, for 2 minutes at 21° C., to create a monolayer of cells at the bottom of the wells.
To initiate an assay, 10 μl of test compound or buffer was added to each well of the cell plate and pre-incubated for 10 minutes in the dark. After 10 minutes, the cell plate was placed in a FDSS 6000 plate reader (Hamamatsu Photonics, Middlesex, N.J.); baseline fluorescence readings were collected for 20 seconds. Next, 25 μl of agonist solution (3 μM glutamate, 3 μM glycine, and 1 mM Ca^2+ in HBSS) was added and the change in fluorescence was recorded for 3 minutes.
Results were calculated by comparing the effects of test compounds to that of the literature standard GluN2C/D PAM CIQ (100 uM). The increase in fluorescence in the presence of CIQ minus the increase induced by glutamate+glycine alone was set to 100%. Responses induced by compounds that were larger than gain the presence of the standard concentration of CIQ were greater than 100% and lesser responses were less than 100%.

[2] = molecular target: T2, human GRIN1 (transcript variant NR1-3) and GRIN2D expressed in Xenopus oocytes (Homo sapiens, UniProt O15399); assay: NR2D oocyte potentiation assay (two-electrode voltage clamp); type: cell-based; conditions: 10 uM test compound; glutamate and glycine 10 μM each; holding potential −40 mV
T2 construct: GenScript (GRIN2D synthesis) SC115601; host or cells: Xenopus oocytes injected with cRNA (1 GluN1 : 2 GluN2)
T2 sequence (O15399 28-1336, other chains not shown): as above
How it was run: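 Xenopus oocytes were defolliculated with collagenase, then injected with 50 nL of cRNA encoding human GluN1 (NR1-3 variant) and GluN2D mixed 1:2 and kept 72 h at 16° C. Two-electrode voltage clamp at −40 mV recorded currents; after 10 μM glutamate plus 10 μM glycine reached plateau, test compound was added until a new plateau formed.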

Emax [1]	NR2D Oocyte % Potentiation @ 10 uM [2]	activation at 10 µM [2]	SMILES
10 to 50%	Inhibitor		CC(C)(C)c1ccc(-c2nc3n(c(=O)c2C#N)C(c2ccccc2)CCS3)cc1 (stereo not drawn) [Example 202, 8-(4-tert-butylphenyl)-3,4-dihydro-4-phenyl-6-oxo-2H,6H-pyrimido[2,1-b][1,3]thiazine-7-carbonitrile]
100 to 200%		100 to 500%	CC(C)(C)c1ncc(-c2nc3ccccn3c(=O)c2C#N)cn1 [Example 20, 2-(2-(tert-butyl)pyrimidin-5-yl)-4-oxo-4H-pyrido[1,2-a]pyrimidine-3-carbonitrile]
100 to 200%		500 to 1000%	CC(C)(C)c1ccc(-c2nc3n(c(=N)c2C#N)CCCS3)cc1 [Example 36, 8-(4-(tert-butyl)phenyl)-6-imino-3,4-dihydro-2H,6H-pyrimido[2,1-b][1,3]thiazine-7-carbonitrile]
